In patent US8119564B2, “Herbicidal control using sulfentrazone and metsulfuron” (FMC Corporation, priority 2009, dated 2012):

Legend:
[1] = system: ground ivy (Glechoma hederacea); assay: Post-emergent herbicidal evaluation on turf plots, ground ivy control; assay type: in vivo
Procedure: (§1) Test compositions containing sulfentrazone (Dismiss™ Turf Herbicide), metsulfuron methyl (BLADE™ Selective Herbicide For Turfgrass) and mixtures thereof, were diluted with water to provide the appropriate test rate concentrations.
(§2) The size of each experimental turf plot was 5 feet by 10 feet. The application of each test composition was performed with a pressurized back-pack sprayer, calibrated to spray 30 gallons per acre. Three replications were made for each test rate along with an untreated control plot.
(§3) Test weeds were about 3 inches tall at the time of treatment. Control of ground ivy (Glechoma hederacea) and field violet (Viola arvensis) was evaluated at 6, 14, 28, 40 and 55 days after treatment (DAT) for each test rate. In order t to provide a measure of the effectiveness of a herbicide's performance weed control ratings were based on visual observations of the presence or absence of various weeds or of symptoms (necrosis, wilting, curling of leaves, discoloration etc.) on weeds compared to lack of symptoms. Ratings are based on the 0 to 100 rating system, where 0 equals no control and 100 equals complete control, which generally makes use of direct-percentage figures. In this system the standard basis for comparison is an untreated weedy check. Counts are made of each weed species found in the untreated area of the study. This provides a basis to give a precise representation of both weed infestation and degree of control provided by various chemical treatments. Counts are made on randomly selected areas which are generally 1 square foot to 1 square yard in size. Ratings are made for each weed species found in the untreated treatments. For example, a random area in an untreated plot has 10 yellow nutsedge plants per square foot equaling 0% control. A treated plot has only 1 yellow nutsedge plant found in the randomly selected area equaling 90% control.
(§4) Compositions of the present invention were tested for herbicidal efficacy in the manner of Example 1. Table A below summarizes the test data for ratios of sulfentrazone to metsulfuron methyl that are outside the scope of the present invention. The Colby equation expected values are also in Table A.

[2] = system: field violet (Viola arvensis); assay: Post-emergent herbicidal evaluation on turf plots, wild violet control; assay type: in vivo
Procedure: as §1, §2, §3, §4

[3] = 0.01 lb/ac, 6 DAT, NIS 0.25% V/V
[4] = 0.01 lb/ac, 14 DAT, NIS 0.25% V/V
[5] = 0.01 lb/ac, 28 DAT, NIS 0.25% V/V
[6] = 0.01 lb/ac, 40 DAT, NIS 0.25% V/V
[7] = 0.01 lb/ac, 55 DAT, NIS 0.25% V/V
[8] = 0.02 lb/ac, 6 DAT, NIS 0.25% V/V
[9] = 0.02 lb/ac, 14 DAT, NIS 0.25% V/V
[10] = 0.02 lb/ac, 28 DAT, NIS 0.25% V/V
[11] = 0.02 lb/ac, 40 DAT, NIS 0.25% V/V
[12] = 0.02 lb/ac, 55 DAT, NIS 0.25% V/V
[13] = 0.04 lb/ac, 6 DAT, NIS 0.25% V/V
[14] = 0.04 lb/ac, 14 DAT, NIS 0.25% V/V
[15] = 0.04 lb/ac, 28 DAT, NIS 0.25% V/V
[16] = 0.04 lb/ac, 40 DAT, NIS 0.25% V/V
[17] = 0.04 lb/ac, 55 DAT, NIS 0.25% V/V

COC(=O)c1ccccc1S(=O)(=O)NC(=O)Nc1nc(C)nc(OC)n1 [Metsulfuron Methyl, methyl 2-[[[[(4-methoxy-6-methyl-1,3,5-triazin-2-yl)amino]carbonyl]amino]sulfonyl]benzoate]
% Control of Weeds, Ground Ivy Control [1, 3]: 5% | % Control of Weeds, Ground Ivy Control [1, 4]: 33% | % Control of Weeds, Ground Ivy Control [1, 5]: 83% | % Control of Weeds, Ground Ivy Control [1, 6]: 96% | % Control of Weeds, Ground Ivy Control [1, 7]: 97% | % Control of Weeds, Ground Ivy Control [1, 8]: 0% | % Control of Weeds, Ground Ivy Control [1, 9]: 20% | % Control of Weeds, Ground Ivy Control [1, 10]: 75% | % Control of Weeds, Ground Ivy Control [1, 11]: 94% | % Control of Weeds, Ground Ivy Control [1, 12]: 100% | % Control of Weeds, Ground Ivy Control [1, 13]: 0% | % Control of Weeds, Ground Ivy Control [1, 14]: 36.7% | % Control of Weeds, Ground Ivy Control [1, 15]: 90% | % Control of Weeds, Ground Ivy Control [1, 16]: 97% | % Control of Weeds, Ground Ivy Control [1, 17]: 100% | % Control of Weeds, Wild Violet Control [2, 3]: 0% | % Control of Weeds, Wild Violet Control [2, 4]: 0% | % Control of Weeds, Wild Violet Control [2, 5]: 58.3% | % Control of Weeds, Wild Violet Control [2, 6]: 63.3% | % Control of Weeds, Wild Violet Control [2, 7]: 66.7% | % Control of Weeds, Wild Violet Control [2, 8]: 0% | % Control of Weeds, Wild Violet Control [2, 9]: 3.3% | % Control of Weeds, Wild Violet Control [2, 10]: 50% | % Control of Weeds, Wild Violet Control [2, 11]: 75% | % Control of Weeds, Wild Violet Control [2, 12]: 86.7% | % Control of Weeds, Wild Violet Control [2, 13]: 0% | % Control of Weeds, Wild Violet Control [2, 14]: 0% | % Control of Weeds, Wild Violet Control [2, 15]: 51.7% | % Control of Weeds, Wild Violet Control [2, 16]: 66.7% | % Control of Weeds, Wild Violet Control [2, 17]: 66.7%

Cc1nn(-c2cc(NS(C)(=O)=O)c(Cl)cc2Cl)c(=O)n1C(F)F [Sulfentrazone, N-[2,4-dichloro-5-[4-difluoromethyl-4,5-dihydro-3-methyl-5-oxo-1H-1,2,4-triazol-1-yl]phenyl]methanesulfonamide]
% Control of Weeds, Ground Ivy Control ([1]; 0.125 lb/ac, 6 DAT): 11.7% | % Control of Weeds, Ground Ivy Control ([1]; 0.125 lb/ac, 14 DAT): 10% | % Control of Weeds, Ground Ivy Control ([1]; 0.125 lb/ac, 28 DAT): 0% | % Control of Weeds, Ground Ivy Control ([1]; 0.125 lb/ac, 40 DAT): 0% | % Control of Weeds, Ground Ivy Control ([1]; 0.125 lb/ac, 55 DAT): 0% | % Control of Weeds, Ground Ivy Control ([1]; 0.25 lb/ac, 6 DAT): 10% | % Control of Weeds, Ground Ivy Control ([1]; 0.25 lb/ac, 14 DAT): 13.3% | % Control of Weeds, Ground Ivy Control ([1]; 0.25 lb/ac, 28 DAT): 0% | % Control of Weeds, Ground Ivy Control ([1]; 0.25 lb/ac, 40 DAT): 0% | % Control of Weeds, Ground Ivy Control ([1]; 0.25 lb/ac, 55 DAT): 0% | % Control of Weeds, Ground Ivy Control ([1]; 0.38 lb/ac, 6 DAT): 11.7% | % Control of Weeds, Ground Ivy Control ([1]; 0.38 lb/ac, 14 DAT): 6.7% | % Control of Weeds, Ground Ivy Control ([1]; 0.38 lb/ac, 28 DAT): 3.3% | % Control of Weeds, Ground Ivy Control ([1]; 0.38 lb/ac, 40 DAT): 0% | % Control of Weeds, Ground Ivy Control ([1]; 0.38 lb/ac, 55 DAT): 0% | % Control of Weeds, Wild Violet Control ([2]; 0.125 lb/ac, 6 DAT): 5% | % Control of Weeds, Wild Violet Control ([2]; 0.125 lb/ac, 14 DAT): 0% | % Control of Weeds, Wild Violet Control ([2]; 0.125 lb/ac, 28 DAT): 0% | % Control of Weeds, Wild Violet Control ([2]; 0.125 lb/ac, 40 DAT): 0% | % Control of Weeds, Wild Violet Control ([2]; 0.125 lb/ac, 55 DAT): 0% | % Control of Weeds, Wild Violet Control ([2]; 0.25 lb/ac, 6 DAT): 5% | % Control of Weeds, Wild Violet Control ([2]; 0.25 lb/ac, 14 DAT): 0% | % Control of Weeds, Wild Violet Control ([2]; 0.25 lb/ac, 28 DAT): 0% | % Control of Weeds, Wild Violet Control ([2]; 0.25 lb/ac, 40 DAT): 0% | % Control of Weeds, Wild Violet Control ([2]; 0.25 lb/ac, 55 DAT): 0% | % Control of Weeds, Wild Violet Control ([2]; 0.38 lb/ac, 6 DAT): 1.7% | % Control of Weeds, Wild Violet Control ([2]; 0.38 lb/ac, 14 DAT): 0% | % Control of Weeds, Wild Violet Control ([2]; 0.38 lb/ac, 28 DAT): 10% | % Control of Weeds, Wild Violet Control ([2]; 0.38 lb/ac, 40 DAT): 0% | % Control of Weeds, Wild Violet Control ([2]; 0.38 lb/ac, 55 DAT): 23.3%
